Results as given in patent US20110263647A1 (AMGEN INC., priority 2009, published 2011).
Structures can show the parent of a compound that is named as a salt.

Target: T1, PKBα (Homo sapiens, UniProt P31749)
T1 construct: fused on or other part: His6 tag is likely on the Upstate products
Assay: PKB kinase assay (P33-labeled ATP, peptide substrate, filter plate)
Type: biochemical
Details: with respect to PKBα
Text: The kinase assay for evaluating PKB activity comprises active PKB enzymes, a PKB specific substrate, and P^33-labeled ATP. Two form of PKBα enzymes were used, the full length PKBα and a kinase domain of PKBα with pleckstrin domain (amino acids 1-117) deleted. Both PKB enzymes were obtained from Upstate cell signaling solutions (Cat.# 14-276 and 14-341). The PKB substrate used is a synthetic peptide (ARKRERTYSFGHHA (SEQ ID NO: 1)) as described in Obata et al., J. Biol. Chem. 275 (46), 36108-36115 (2000). The phosphorylated substrate was captured by a phosphocellulose membrane filter plate (MILLIPORE) and measured by a Wallac Microbeta liquid scintillation counter (Perkin Elmer). Table 1 provides the IC50 values obtained for each of the examples with respect to PKBα.

T1 sequence (P31749 118-472 limits assumed): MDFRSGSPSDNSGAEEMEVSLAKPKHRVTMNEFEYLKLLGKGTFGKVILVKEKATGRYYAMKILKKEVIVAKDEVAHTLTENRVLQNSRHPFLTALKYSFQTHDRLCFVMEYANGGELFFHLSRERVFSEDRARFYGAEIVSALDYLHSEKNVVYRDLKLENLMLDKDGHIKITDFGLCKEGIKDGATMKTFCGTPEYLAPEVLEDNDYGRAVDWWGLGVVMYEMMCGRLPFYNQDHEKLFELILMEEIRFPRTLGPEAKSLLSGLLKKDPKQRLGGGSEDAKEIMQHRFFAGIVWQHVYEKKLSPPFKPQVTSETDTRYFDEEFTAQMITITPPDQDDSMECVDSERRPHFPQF

## COCc1nc(NC[C@@H](N)Cc2ccc(C(F)(F)F)cc2)sc1-c1ccc2cnc(F)cc2c1 [Example 24, N—((S)-2-Amino-3-(4-(trifluoromethyl)phenyl)propyl)-5-(3-fluoroisoquinolin-6-yl)-4-(methoxymethyl)thiazol-2-amine]
  IC50: < 50 nM

## N[C@H](CNc1ncc(-c2ccc3cnc(F)cc3c2)s1)Cc1cnc(C(F)(F)F)nc1 [Example 26, N—((S)-2-Amino-3-(2-(trifluoromethyl)pyrimidin-5-yl)propyl)-5-(3-fluoroisoquinolin-6-yl)thiazol-2-amine]
  IC50: < 50 nM

## N[C@H](CNc1ncc(-c2ccc3cnc(F)cc3c2)s1)Cn1cnc(C(F)(F)F)c1 [Example 28, N—((R)-2-Amino-3-(4-(trifluoromethyl)-1H-imidazol-1-yl)propyl)-5-(3-fluoroisoquinolin-6-yl)thiazol-2-amine]
  IC50: 50 to 1000 nM

## N[C@H](CNc1ncc(-c2ccc3cnc(F)cc3c2)s1)CN1CCCC(C(F)(F)F)C1 (stereo partly drawn) [Example 30, N—((R)-2-Amino-3-((3S)-(trifluoromethyl)piperidin-1-yl)propyl)-5-(3-fluoroisoquinolin-6-yl)thiazol-2-amine]
  IC50: 1000 to 10000 nM

## N[C@H](CNc1ncc(-c2ccc3cnc(F)cc3c2)s1)Cc1ccc(C(F)(F)F)nc1Cl [Example 31, N—((S)-2-Amino-3-(2-chloro-6-(trifluoromethyl)pyridin-3-yl)propyl)-5-(3-fluoroisoquinolin-6-yl)thiazol-2-amine]
  IC50: < 50 nM

## COC[C@@H](c1ccc(C(F)(F)F)cc1)[C@H](N)CNc1ncc(-c2ccc3cnc(F)cc3c2)s1 [Example 32, N-((2S,3S)-2-Amino-4-methoxy-3-(4-(trifluoromethyl)phenyl)butyl)-5-(3-fluoroisoquinolin-6-yl)thiazol-2-amine]
  IC50: < 50 nM

## CS(=O)(=O)C[C@@H](c1ccc(C(F)(F)F)cc1)[C@H](N)CNc1ncc(-c2ccc3cnc(F)cc3c2)s1 [Example 34, N-((2S,3S)-2-Amino-4-(methylsulfonyl)-3-(4-(trifluoromethyl)phenyl)butyl)-5-(3-fluoroisoquinolin-6-yl)thiazol-2-amine]
  IC50: 50 to 1000 nM

## CC#Cc1nc(NC[C@@H](N)Cc2ccc(C(F)(F)F)nc2)sc1-c1ccc2cnc(F)cc2c1 [Example 35, N—((S)-2-Amino-3-(6-(trifluoromethyl)pyridin-3-yl)propyl)-5-(3-fluoroisoquinolin-6-yl)-4-(prop-1-ynyl)thiazol-2-amine]
  IC50: < 50 nM

## N[C@H](CNc1ncc(-c2ccc3cnc(F)cc3c2)s1)[C@@H](O)c1ccc(C(F)(F)F)cc1 [Example 37, (1S,2R)-2-Amino-3-((5-(3-fluoro-6-isoquinolinyl)-1,3-thiazol-2-yl)amino)-1-(4-(trifluoromethyl)phenyl)-1-propanol trifluoroacetate]
  IC50: < 50 nM

## COCO[C@@H](c1ccc(C(F)(F)F)cc1)[C@H](N)CNc1ncc(-c2ccc3cnc(F)cc3c2)s1 [Example 39]
  IC50: < 50 nM

## N[C@H](CNc1ncc(-c2ccc3cnc(F)cc3c2)s1)Cc1cnc(F)c(Cl)c1 [Example 40, N—((S)-2-Amino-3-(5-chloro-6-fluoropyridin-3-yl)propyl)-5-(3-fluoroisoquinolin-6-yl)thiazol-2-amine]
  IC50: 50 to 1000 nM

## CC(C)(C)OC(=O)N[C@@H](Cc1ccc(C(F)F)cc1)CN(C(=O)OC(C)(C)C)c1ncc(-c2ccc3cnc(F)cc3c2)s1 [Example 41, tert-Butyl ((2S)-2-((tert-butoxycarbonyl)amino)-3-(4-(difluoromethyl)phenyl)propyl)(5-(3-fluoro-6-isoquinolinyl)-1,3-thiazol-2-yl)carbamate]
  IC50: 1000 to 10000 nM

## N[C@H](CNc1ncc(-c2ccc3cnc(F)cc3c2)s1)Cc1ccc(C(F)F)cc1 [Example 42, (2S)-3-(4-(difluoromethyl)phenyl)-N-1-(5-(3-fluoro-6-isoquinolinyl)-1,3-thiazol-2-yl)-1-2-propanediamine trifluoroacetate]
  IC50: < 50 nM

## N[C@H](CNc1ncc(-c2ccc3cnc(F)cc3c2)s1)Cc1ccc2c(c1)OCCO2 [Example 43, N—((S)-2-Amino-3-(2,3-dihydrobenzo[b][1,4]dioxin-6-yl)propyl)-5-(3-fluoroisoquinolin-6-yl)thiazol-2-amine]
  IC50: < 50 nM

## COC(=O)c1ccc(C[C@H](N)CNc2ncc(-c3ccc4cnc(F)cc4c3)s2)cc1 [Example 45]
  IC50: 50 to 1000 nM

## Cn1ccc(C[C@H](N)CNc2ncc(-c3ccc4cnc(F)cc4c3)s2)cc1=O [Example 46]
  IC50: 50 to 1000 nM

## N[C@@H](CNc1ncc(-c2ccc3cnc(F)cc3c2)s1)Cc1ccc(C(F)(F)F)nc1 [Example 47, (2R)—N^1-(5-(3-Fluoro-6-isoquinolinyl)-1,3-thiazol-2-yl)-3-(6-(trifluoromethyl)-3-pyridinyl)-1,2-propanediamine]
  IC50: 1000 to 10000 nM

## N[C@H](CCc1ncc(-c2ccc3cnc(F)cc3c2)s1)Cc1ccc(C(F)(F)F)cc1 [Example 48, (2R)-4-(5-(3-Fluoroisoquinolin-6-yl)thiazol-2-yl)-1-(4-(trifluoromethyl)phenyl)butan-2-amine]
  IC50: 1000 to 10000 nM

## COCc1nc(CC[C@@H](N)Cc2ccc(C(F)(F)F)nc2)sc1-c1ccc2cnc(F)cc2c1 [Example 49, (2R)-4-(5-(3-Fluoroisoquinolin-6-yl)-4-(methoxymethyl)thiazol-2-yl)-1-(6-(trifluoromethyl)pyridin-3-yl)butan-2-amine]
  IC50: < 50 nM
